Source: BigSolDB 2.1

O=[N+]([O-])c1cc(F)c(F)cc1[N+](=O)[O-]
solubility (mole fraction)
Settings | 293.15 K | 298.15 K | 303.15 K | 308.15 K | 313.15 K | 318.15 K | 323.15 K | 328.15 K | 333.15 K
in 1,2-dichloroethane | 0.000981 | 0.00112 | 0.00128 | 0.00171 | 0.00229 | 0.00314 | 0.00416 | 0.00553 | 0.00752
in benzene | 0.00143 | 0.00152 | 0.00173 | 0.00216 | 0.00286 | 0.00384 | 0.00499 | 0.00647 | 0.0086
in chloroform | 0.000875 | 0.000957 | 0.00111 | 0.00156 | 0.00237 | 0.00339 | 0.00456 | 0.00611 | –
in ethanol | 0.00011 | 0.00014 | 0.000166 | 0.000246 | 0.000339 | 0.00047 | 0.000662 | 0.000906 | 0.00121
in ethyl acetate | 0.0019 | 0.00215 | 0.00241 | 0.0028 | 0.00342 | 0.00433 | 0.00554 | 0.00735 | 0.00951
in ethyl formate | 0.00271 | 0.00284 | 0.00303 | 0.00339 | 0.00402 | 0.00493 | 0.00613 | 0.00775 | 0.01
in isopropanol | 3.1e-05 | 5e-05 | 6.4e-05 | 8.9e-05 | 0.000123 | 0.000164 | 0.000215 | 0.000296 | 0.00038
in m-xylene | 0.00176 | 0.00206 | 0.00248 | 0.00303 | 0.00368 | 0.00444 | 0.00531 | 0.0062 | 0.00722
in mesitylene | 0.00238 | 0.00259 | 0.00279 | 0.00309 | 0.00348 | 0.00397 | 0.00459 | 0.0055 | 0.00652
in methanol | 0.00019 | 0.000263 | 0.000324 | 0.000401 | 0.000504 | 0.000632 | 0.000774 | 0.000956 | 0.00121
in n-butanol | 3.8e-05 | 6e-05 | 9.5e-05 | 0.000142 | 0.000198 | 0.000278 | 0.000384 | 0.000546 | 0.000785
in n-propanol | 4.5e-05 | 6.1e-05 | 8.5e-05 | 0.00012 | 0.000186 | 0.000278 | 0.000413 | 0.000595 | 0.00083
in o-xylene | 0.00213 | 0.00236 | 0.00277 | 0.00327 | 0.00377 | 0.00441 | 0.00513 | 0.00598 | 0.00701
in p-xylene | 0.00172 | 0.00199 | 0.00228 | 0.00267 | 0.00323 | 0.00395 | 0.00494 | 0.00647 | 0.0085
in tetrachloromethane | – | 2.2e-05 | 4.7e-05 | 9.5e-05 | 0.000168 | 0.000276 | 0.000426 | 0.000614 | 0.000854
in toluene | 0.00135 | 0.00154 | 0.00201 | 0.00268 | 0.00349 | 0.00448 | 0.00551 | 0.00669 | 0.00781
